Organism: Rattus norvegicus
Assay: Open TG-GATES - Regimen: Single
Format: toxicity, organism-based, Sprague-Dawley
Set-up: regimen Single, gender Male, age 6 weeks
Settings: in vivo, po, 30 mg/kg, route gavage, dose level Low; for APTT / Bas / Eos / Fbg / Hb / Ht / Lym / MCH / MCHC / MCV / Mono / Neu / PT / Plat / RBC / Ret / WBC: tissue Blood; for KIDNEY_L / KIDNEY_R / KIDNEY_TOTAL: tissue Kidney; for LIVER: tissue Liver; for A/G / ALP / ALT / AST / BUN / CRE / Ca / Cl / DBIL / GLC / IP / K / LDH / Na / PL / RALB / TBIL / TC / TG / TP / gamma-GTP: tissue Plasma

NC(=O)N/N=C/c1ccc([N+](=O)[O-])o1 [NITROFURAZONE]
TERMINAL_BW (3 h): 181.5 g | APTT (3 h): 16.4 s | Bas (3 h): 0.2% | Eos (3 h): 0.8% | Fbg (3 h): 262.8 mg/dL | Hb (3 h): 13 g/dL | Ht (3 h): 40.6% | Lym (3 h): 68.6% | MCH (3 h): 21.7 pg | MCHC (3 h): 31.9% | MCV (3 h): 67.8 fL | Mono (3 h): 3.6% | Neu (3 h): 26% | PT (3 h): 14.8 s | Plat (3 h): 116.3 x10_4/uL | RBC (3 h): 598.8 x10_4/ul | Ret (3 h): 10.6% | WBC (3 h): 92.5 x10_2/uL | KIDNEY_L (3 h): 0.8 g | KIDNEY_R (3 h): 0.8 g | KIDNEY_TOTAL (3 h): 1.6 g | LIVER (3 h): 8.1 g | A/G (3 h): 0.9 | ALP (3 h): 1547.4 IU/L | ALT (3 h): 43 IU/L | AST (3 h): 76.8 IU/L | BUN (3 h): 10.8 mg/dL | CRE (3 h): 0.2 mg/dL | Ca (3 h): 11.3 mg/dL | Cl (3 h): 106.4 meq/L | DBIL (3 h): 0.01 mg/dL | GLC (3 h): 175 mg/dL | IP (3 h): 9.7 mg/dL | K (3 h): 4 meq/L | LDH (3 h): 47.2 IU/L | Na (3 h): 142.8 meq/L | PL (3 h): 145.4 mg/dL | RALB (3 h): 2.4 g/dL | TBIL (3 h): 0.054 mg/dL | TC (3 h): 81 mg/dL | TG (3 h): 48 mg/dL | TP (3 h): 5.2 g/dL | gamma-GTP (3 h): 1.6 IU/L | TERMINAL_BW (6 h): 178.8 g | APTT (6 h): 16 s | Bas (6 h): 0% | Eos (6 h): 0.8% | Fbg (6 h): 253.2 mg/dL | Hb (6 h): 12.8 g/dL | Ht (6 h): 39.9% | Lym (6 h): 71% | MCH (6 h): 21.3 pg | MCHC (6 h): 32.1% | MCV (6 h): 66.5 fL | Mono (6 h): 2.8% | Neu (6 h): 24% | PT (6 h): 14.6 s | Plat (6 h): 116.1 x10_4/uL | RBC (6 h): 599.8 x10_4/ul | Ret (6 h): 10.6% | WBC (6 h): 83.2 x10_2/uL | KIDNEY_L (6 h): 0.8 g | KIDNEY_R (6 h): 0.8 g | KIDNEY_TOTAL (6 h): 1.6 g | LIVER (6 h): 7.6 g | A/G (6 h): 0.9 | ALP (6 h): 1430.2 IU/L | ALT (6 h): 43.6 IU/L | AST (6 h): 76.8 IU/L | BUN (6 h): 7.8 mg/dL | CRE (6 h): 0.2 mg/dL | Ca (6 h): 11 mg/dL | Cl (6 h): 105 meq/L | DBIL (6 h): 0.01 mg/dL | GLC (6 h): 167.4 mg/dL | IP (6 h): 10.3 mg/dL | K (6 h): 4 meq/L | LDH (6 h): 52.6 IU/L | Na (6 h): 141 meq/L | PL (6 h): 139 mg/dL | RALB (6 h): 2.4 g/dL | TBIL (6 h): 0.062 mg/dL | TC (6 h): 83.6 mg/dL | TG (6 h): 33.2 mg/dL | TP (6 h): 5.1 g/dL | gamma-GTP (6 h): 1.6 IU/L | TERMINAL_BW (9 h): 179 g | APTT (9 h): 16 s | Bas (9 h): 0% | Eos (9 h): 1% | Fbg (9 h): 264.6 mg/dL | Hb (9 h): 12.7 g/dL | Ht (9 h): 39.3% | Lym (9 h): 76.6% | MCH (9 h): 21.1 pg | MCHC (9 h): 32.4% | MCV (9 h): 65.3 fL | Mono (9 h): 2.8% | Neu (9 h): 19% | PT (9 h): 14.9 s | Plat (9 h): 105.2 x10_4/uL | RBC (9 h): 601.4 x10_4/ul | Ret (9 h): 10.5% | WBC (9 h): 60.9 x10_2/uL | KIDNEY_L (9 h): 0.8 g | KIDNEY_R (9 h): 0.8 g | KIDNEY_TOTAL (9 h): 1.7 g | LIVER (9 h): 7.2 g | A/G (9 h): 0.9 | ALP (9 h): 1367.6 IU/L | ALT (9 h): 42.8 IU/L | AST (9 h): 76 IU/L | BUN (9 h): 7.4 mg/dL | CRE (9 h): 0.1 mg/dL | Ca (9 h): 10.8 mg/dL | Cl (9 h): 105.6 meq/L | DBIL (9 h): 0.016 mg/dL | GLC (9 h): 163.6 mg/dL | IP (9 h): 10.3 mg/dL | K (9 h): 3.7 meq/L | LDH (9 h): 48.8 IU/L | Na (9 h): 141.4 meq/L | PL (9 h): 133.2 mg/dL | RALB (9 h): 2.4 g/dL | TBIL (9 h): 0.064 mg/dL | TC (9 h): 72.4 mg/dL | TG (9 h): 40.4 mg/dL | TP (9 h): 5.2 g/dL | gamma-GTP (9 h): 1.2 IU/L | TERMINAL_BW (24 h): 197.2 g | APTT (24 h): 15.8 s | Bas (24 h): 0.2% | Eos (24 h): 0.8% | Fbg (24 h): 260 mg/dL | Hb (24 h): 12.3 g/dL | Ht (24 h): 38% | Lym (24 h): 79% | MCH (24 h): 21.5 pg | MCHC (24 h): 32.3% | MCV (24 h): 66.5 fL | Mono (24 h): 3.6% | Neu (24 h): 16% | PT (24 h): 14.8 s | Plat (24 h): 112 x10_4/uL | RBC (24 h): 571.2 x10_4/ul | Ret (24 h): 10.6% | WBC (24 h): 87.3 x10_2/uL | KIDNEY_L (24 h): 0.9 g | KIDNEY_R (24 h): 0.9 g | KIDNEY_TOTAL (24 h): 1.8 g | LIVER (24 h): 9.3 g | A/G (24 h): 0.9 | ALP (24 h): 1764.6 IU/L | ALT (24 h): 50.2 IU/L | AST (24 h): 75.2 IU/L | BUN (24 h): 14.6 mg/dL | CRE (24 h): 0.2 mg/dL | Ca (24 h): 11.4 mg/dL | Cl (24 h): 104.6 meq/L | DBIL (24 h): 0.014 mg/dL | GLC (24 h): 179.2 mg/dL | IP (24 h): 9.1 mg/dL | K (24 h): 4 meq/L | LDH (24 h): 64.2 IU/L | Na (24 h): 142 meq/L | PL (24 h): 145.6 mg/dL | RALB (24 h): 2.5 g/dL | TBIL (24 h): 0.048 mg/dL | TC (24 h): 80.2 mg/dL | TG (24 h): 62.6 mg/dL | TP (24 h): 5.4 g/dL | gamma-GTP (24 h): 1 IU/L
